From PMC11233931, “Remodeling tumor‐associated macrophage for anti‐cancer effects by rational design of irreversible inhibition of mitogen‐activated protein kinase‐activated protein kinase 2” (MedComm, 2024)

Tests used:
Assay in all cases: Eurofins kinase selectivity profile against 380 other human recombinant kinases (Table S2)
Format in all cases: biochemical
[1] = target: T1, 380 human recombinant protein kinases (Homo sapiens, UniProt O60331); conditions: PIP5K1γ(h), read-out: Inhibition rate (%)
T1 construct: purchased Eurofins (Celle Lévescault)
T1 sequence (O60331 whole entry): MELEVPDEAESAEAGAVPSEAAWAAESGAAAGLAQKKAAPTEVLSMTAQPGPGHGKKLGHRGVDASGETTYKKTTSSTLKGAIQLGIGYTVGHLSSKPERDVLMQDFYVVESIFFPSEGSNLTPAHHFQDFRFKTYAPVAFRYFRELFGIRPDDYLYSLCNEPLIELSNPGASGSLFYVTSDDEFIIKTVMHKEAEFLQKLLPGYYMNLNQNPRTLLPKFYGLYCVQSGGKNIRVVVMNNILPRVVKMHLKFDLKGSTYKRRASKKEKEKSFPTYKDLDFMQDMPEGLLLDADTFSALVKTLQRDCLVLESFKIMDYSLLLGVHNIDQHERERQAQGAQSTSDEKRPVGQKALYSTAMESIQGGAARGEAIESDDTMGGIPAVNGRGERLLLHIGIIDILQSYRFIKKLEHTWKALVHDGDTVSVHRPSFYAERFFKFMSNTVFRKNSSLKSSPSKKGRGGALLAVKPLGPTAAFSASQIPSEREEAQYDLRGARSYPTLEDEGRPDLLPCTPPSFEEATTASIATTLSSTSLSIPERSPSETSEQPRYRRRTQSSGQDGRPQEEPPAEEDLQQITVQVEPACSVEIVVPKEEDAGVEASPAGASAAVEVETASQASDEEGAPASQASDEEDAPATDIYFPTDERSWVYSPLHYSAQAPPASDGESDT
Procedure, shortened: (§1)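 Selectivity panel of 380 human recombinant protein kinases, screened by Eurofins at a range of concentrations.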

[2] = target: T2, 380 human recombinant protein kinases (Homo sapiens, UniProt P09769); conditions: Fgr(h), read-out: Inhibition rate
T2 construct: purchased Eurofins (Celle Lévescault)
T2 sequence (P09769 whole entry): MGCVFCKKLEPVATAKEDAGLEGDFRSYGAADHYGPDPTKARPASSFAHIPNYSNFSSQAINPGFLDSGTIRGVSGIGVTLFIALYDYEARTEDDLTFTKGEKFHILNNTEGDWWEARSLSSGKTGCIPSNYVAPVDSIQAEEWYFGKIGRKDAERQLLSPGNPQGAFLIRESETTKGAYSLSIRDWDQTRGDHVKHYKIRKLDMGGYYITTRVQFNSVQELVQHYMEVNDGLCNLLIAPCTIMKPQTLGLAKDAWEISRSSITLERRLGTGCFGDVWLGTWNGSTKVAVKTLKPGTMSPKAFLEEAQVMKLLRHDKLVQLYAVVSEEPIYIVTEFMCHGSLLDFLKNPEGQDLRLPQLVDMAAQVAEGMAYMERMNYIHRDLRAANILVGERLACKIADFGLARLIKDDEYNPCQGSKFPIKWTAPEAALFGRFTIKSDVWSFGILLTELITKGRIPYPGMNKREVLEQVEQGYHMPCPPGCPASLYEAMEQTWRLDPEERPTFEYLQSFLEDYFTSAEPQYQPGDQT
Procedure, shortened: as §1

[3] = target: T3, 380 human recombinant protein kinases (Homo sapiens, UniProt Q06418); conditions: Rse(h), read-out: Inhibition rate
T3 construct: purchased Eurofins (Celle Lévescault)
T3 sequence (Q06418 41-890): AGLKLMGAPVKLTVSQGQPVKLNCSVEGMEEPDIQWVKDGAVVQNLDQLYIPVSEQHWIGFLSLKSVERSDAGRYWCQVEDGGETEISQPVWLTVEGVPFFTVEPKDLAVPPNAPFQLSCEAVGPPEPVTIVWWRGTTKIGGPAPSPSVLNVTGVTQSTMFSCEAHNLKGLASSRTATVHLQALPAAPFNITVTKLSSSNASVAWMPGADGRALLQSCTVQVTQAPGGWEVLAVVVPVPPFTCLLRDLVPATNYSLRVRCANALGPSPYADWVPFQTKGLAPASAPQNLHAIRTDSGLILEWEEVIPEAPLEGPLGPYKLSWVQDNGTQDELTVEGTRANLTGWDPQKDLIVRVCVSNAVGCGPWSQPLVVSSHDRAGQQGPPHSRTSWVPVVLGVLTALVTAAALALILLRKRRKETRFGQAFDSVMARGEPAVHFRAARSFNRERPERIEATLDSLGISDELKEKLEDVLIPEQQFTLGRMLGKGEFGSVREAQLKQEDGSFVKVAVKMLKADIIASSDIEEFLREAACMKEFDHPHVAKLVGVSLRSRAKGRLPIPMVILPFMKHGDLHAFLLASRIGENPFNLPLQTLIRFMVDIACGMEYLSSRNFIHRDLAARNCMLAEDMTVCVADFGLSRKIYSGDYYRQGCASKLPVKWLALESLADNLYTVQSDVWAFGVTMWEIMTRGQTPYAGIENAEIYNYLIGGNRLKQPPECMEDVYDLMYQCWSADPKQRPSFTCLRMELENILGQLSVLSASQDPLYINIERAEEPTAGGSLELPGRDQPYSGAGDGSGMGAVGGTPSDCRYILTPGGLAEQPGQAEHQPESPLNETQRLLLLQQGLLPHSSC
Procedure, shortened: as §1

[4] = target: T4, 380 human recombinant protein kinases (Homo sapiens, UniProt Q07912); conditions: ACK1(h), read-out: Inhibition rate
T4 construct: purchased Eurofins (Celle Lévescault)
T4 sequence (Q07912 whole entry): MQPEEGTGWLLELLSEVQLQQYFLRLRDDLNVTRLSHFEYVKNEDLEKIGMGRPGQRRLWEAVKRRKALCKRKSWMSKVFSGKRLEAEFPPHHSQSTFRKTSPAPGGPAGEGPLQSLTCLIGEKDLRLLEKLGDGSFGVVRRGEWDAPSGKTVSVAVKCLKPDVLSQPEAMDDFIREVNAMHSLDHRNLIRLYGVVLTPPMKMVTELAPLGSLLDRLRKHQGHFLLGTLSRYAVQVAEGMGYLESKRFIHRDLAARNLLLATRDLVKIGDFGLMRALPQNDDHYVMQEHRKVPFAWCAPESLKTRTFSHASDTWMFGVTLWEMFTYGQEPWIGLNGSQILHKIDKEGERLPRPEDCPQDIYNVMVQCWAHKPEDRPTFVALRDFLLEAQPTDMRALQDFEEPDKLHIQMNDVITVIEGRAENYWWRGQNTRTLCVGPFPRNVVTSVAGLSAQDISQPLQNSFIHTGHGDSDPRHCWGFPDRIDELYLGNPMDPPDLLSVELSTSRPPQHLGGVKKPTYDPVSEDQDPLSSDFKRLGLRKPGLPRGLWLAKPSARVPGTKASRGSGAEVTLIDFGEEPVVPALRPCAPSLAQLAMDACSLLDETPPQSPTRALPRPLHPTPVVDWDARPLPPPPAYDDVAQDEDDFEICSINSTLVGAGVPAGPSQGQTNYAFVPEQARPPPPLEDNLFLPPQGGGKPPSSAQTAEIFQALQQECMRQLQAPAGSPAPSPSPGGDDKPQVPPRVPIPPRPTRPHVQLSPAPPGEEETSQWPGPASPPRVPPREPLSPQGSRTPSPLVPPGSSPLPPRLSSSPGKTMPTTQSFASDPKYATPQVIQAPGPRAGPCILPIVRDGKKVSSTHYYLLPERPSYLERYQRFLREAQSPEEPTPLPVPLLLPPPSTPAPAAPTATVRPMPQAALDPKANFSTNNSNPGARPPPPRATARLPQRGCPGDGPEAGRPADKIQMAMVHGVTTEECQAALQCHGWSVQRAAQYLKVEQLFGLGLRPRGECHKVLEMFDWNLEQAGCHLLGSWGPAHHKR
Procedure, shortened: as §1

[5] = target: T5, 380 human recombinant protein kinases (Homo sapiens, UniProt Q13557); conditions: CaMKIIδ(h), read-out: Inhibition rate
T5 construct: purchased Eurofins (Celle Lévescault)
T5 sequence (Q13557 whole entry): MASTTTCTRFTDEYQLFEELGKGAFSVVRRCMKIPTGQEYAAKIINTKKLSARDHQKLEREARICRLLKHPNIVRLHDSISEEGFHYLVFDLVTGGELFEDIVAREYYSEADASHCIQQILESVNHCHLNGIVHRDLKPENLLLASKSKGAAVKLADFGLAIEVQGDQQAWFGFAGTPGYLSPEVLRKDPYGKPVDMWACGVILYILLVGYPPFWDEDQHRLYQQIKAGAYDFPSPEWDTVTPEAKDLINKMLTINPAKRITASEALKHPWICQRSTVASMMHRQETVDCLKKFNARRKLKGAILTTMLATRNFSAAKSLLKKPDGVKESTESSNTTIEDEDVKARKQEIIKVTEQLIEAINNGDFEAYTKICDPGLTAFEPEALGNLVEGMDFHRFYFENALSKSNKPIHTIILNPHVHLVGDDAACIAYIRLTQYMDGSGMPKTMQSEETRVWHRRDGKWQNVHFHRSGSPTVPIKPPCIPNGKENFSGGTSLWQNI
Procedure, shortened: as §1

[6] = target: T6, 380 human recombinant protein kinases (Homo sapiens, UniProt Q7KZI7); conditions: PAR-1Bα(h), read-out: Inhibition rate
T6 construct: purchased Eurofins (Celle Lévescault)
T6 sequence (Q7KZI7 whole entry): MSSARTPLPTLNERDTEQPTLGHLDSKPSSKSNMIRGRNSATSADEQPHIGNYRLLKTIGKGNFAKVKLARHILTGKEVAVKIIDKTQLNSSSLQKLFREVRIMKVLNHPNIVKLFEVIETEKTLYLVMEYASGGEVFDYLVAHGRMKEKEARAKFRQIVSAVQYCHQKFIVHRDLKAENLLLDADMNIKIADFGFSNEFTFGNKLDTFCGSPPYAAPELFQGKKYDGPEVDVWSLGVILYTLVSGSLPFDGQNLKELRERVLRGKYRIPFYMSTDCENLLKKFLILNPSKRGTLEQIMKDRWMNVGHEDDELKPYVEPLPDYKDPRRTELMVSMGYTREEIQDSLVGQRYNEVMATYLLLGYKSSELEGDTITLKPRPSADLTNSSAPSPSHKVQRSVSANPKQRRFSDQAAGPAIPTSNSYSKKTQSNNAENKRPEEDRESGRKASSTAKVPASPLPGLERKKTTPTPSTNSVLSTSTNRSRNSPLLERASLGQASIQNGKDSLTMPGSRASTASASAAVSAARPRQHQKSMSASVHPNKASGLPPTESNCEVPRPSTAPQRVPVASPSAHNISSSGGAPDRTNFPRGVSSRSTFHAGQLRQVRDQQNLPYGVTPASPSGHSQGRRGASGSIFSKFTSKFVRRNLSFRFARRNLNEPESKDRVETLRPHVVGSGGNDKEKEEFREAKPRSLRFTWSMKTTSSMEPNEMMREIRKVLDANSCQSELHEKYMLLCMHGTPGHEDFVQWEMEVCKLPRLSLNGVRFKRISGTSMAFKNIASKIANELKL
Procedure, shortened: as §1

[7] = target: T7, 380 human recombinant protein kinases (Homo sapiens, UniProt Q9BQI3); conditions: HRI(h), read-out: Inhibition rate
T7 construct: purchased Eurofins (Celle Lévescault)
T7 sequence (Q9BQI3 whole entry): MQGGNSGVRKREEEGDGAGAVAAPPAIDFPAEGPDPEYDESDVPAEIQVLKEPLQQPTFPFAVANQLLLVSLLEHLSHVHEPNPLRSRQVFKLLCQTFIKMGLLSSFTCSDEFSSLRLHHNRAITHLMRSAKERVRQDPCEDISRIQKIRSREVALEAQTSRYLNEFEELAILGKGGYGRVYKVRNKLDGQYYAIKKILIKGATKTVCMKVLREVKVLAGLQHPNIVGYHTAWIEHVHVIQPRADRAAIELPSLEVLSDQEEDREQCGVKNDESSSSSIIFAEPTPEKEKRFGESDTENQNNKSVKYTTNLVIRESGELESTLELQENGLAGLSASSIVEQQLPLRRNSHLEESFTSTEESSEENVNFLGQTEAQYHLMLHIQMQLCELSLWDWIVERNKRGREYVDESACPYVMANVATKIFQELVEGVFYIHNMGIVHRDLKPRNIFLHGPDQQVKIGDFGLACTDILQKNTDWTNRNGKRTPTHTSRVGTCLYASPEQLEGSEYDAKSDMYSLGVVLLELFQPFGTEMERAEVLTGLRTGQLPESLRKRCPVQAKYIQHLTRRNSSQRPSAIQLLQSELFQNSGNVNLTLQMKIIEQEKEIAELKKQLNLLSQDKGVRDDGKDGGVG
Procedure, shortened: as §1

[8] = target: T8, 380 human recombinant protein kinases (Homo sapiens, UniProt Q9BZL6); conditions: PKD2(h), read-out: Inhibition rate
T8 construct: purchased Eurofins (Celle Lévescault)
T8 sequence (Q9BZL6 1-878): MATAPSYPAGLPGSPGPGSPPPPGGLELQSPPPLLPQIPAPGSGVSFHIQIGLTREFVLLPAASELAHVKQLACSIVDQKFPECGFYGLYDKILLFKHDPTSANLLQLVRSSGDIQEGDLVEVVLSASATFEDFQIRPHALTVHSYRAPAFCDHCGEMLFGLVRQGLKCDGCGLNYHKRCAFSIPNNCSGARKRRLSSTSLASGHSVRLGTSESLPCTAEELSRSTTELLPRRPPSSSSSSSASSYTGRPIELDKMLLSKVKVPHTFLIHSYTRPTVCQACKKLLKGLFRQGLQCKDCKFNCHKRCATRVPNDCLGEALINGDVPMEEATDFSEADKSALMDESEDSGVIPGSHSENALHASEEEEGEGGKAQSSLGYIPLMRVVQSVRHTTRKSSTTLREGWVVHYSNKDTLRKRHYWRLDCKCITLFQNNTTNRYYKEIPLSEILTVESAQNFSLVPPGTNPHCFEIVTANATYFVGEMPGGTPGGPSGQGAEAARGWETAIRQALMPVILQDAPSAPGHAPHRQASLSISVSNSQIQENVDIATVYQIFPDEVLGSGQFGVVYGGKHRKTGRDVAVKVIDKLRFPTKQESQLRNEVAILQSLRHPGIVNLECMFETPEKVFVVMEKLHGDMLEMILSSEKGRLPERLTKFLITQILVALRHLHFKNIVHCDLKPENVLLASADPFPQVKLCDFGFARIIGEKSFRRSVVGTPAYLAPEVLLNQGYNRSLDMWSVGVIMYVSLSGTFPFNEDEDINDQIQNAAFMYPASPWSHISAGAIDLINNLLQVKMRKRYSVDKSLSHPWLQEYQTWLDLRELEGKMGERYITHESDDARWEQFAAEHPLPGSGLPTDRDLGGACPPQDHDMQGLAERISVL
Procedure, shortened: as §1

[9] = target: T9, 380 human recombinant protein kinases (Homo sapiens, UniProt Q9NQU5); conditions: PAK6(h), read-out: Inhibition rate
T9 construct: purchased Eurofins (Celle Lévescault)
T9 sequence (Q9NQU5 whole entry): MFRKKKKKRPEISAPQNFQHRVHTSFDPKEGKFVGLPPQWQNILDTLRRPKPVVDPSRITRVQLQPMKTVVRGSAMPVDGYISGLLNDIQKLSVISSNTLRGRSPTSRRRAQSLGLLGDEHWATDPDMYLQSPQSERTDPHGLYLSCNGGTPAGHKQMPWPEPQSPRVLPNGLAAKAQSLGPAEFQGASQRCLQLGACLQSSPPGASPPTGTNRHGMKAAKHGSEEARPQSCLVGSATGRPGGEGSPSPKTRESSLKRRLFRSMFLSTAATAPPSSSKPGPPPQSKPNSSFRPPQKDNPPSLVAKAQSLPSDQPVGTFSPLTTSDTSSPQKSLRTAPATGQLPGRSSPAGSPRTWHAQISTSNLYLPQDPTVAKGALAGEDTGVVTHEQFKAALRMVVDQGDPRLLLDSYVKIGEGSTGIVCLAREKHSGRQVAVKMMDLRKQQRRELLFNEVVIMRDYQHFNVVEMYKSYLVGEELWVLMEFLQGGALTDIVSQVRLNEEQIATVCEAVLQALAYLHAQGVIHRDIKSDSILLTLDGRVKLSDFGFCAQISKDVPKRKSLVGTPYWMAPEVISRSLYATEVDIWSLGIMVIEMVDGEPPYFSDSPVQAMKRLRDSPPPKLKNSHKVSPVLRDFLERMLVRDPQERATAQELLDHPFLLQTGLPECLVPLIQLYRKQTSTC
Procedure, shortened: as §1

Structure (SMILES): C=CC(=O)Nc1cc(-c2cc(-c3cc4c([nH]3)CCNC4=O)ccn2)ccc1OC(F)(F)F [compound 11]
- inhibition at 0.01 µM ([1]; 10 nM): 0%
- inhibition at 0.1 µM ([1]; 100 nM): -1%
- inhibition at 1 µM ([1]; 1000 nM): 3%
- inhibition at 0.01 µM ([2]; 10 nM): 1%
- inhibition at 0.1 µM ([2]; 100 nM): 0%
- inhibition at 1 µM ([2]; 1000 nM): 0%
- inhibition at 0.01 µM ([3]; 10 nM): 7%
- inhibition at 0.1 µM ([3]; 100 nM): -3%
- inhibition at 1 µM ([3]; 1000 nM): -5%
- inhibition at 0.01 µM ([4]; 10 nM): 1%
- inhibition at 0.1 µM ([4]; 100 nM): 2%
- inhibition at 1 µM ([4]; 1000 nM): 3%
- inhibition at 0.01 µM ([5]; 10 nM): -7%
- inhibition at 0.1 µM ([5]; 100 nM): 11%
- inhibition at 1 µM ([5]; 1000 nM): 20%
- inhibition at 0.01 µM ([6]; 10 nM): -6%
- inhibition at 0.1 µM ([6]; 100 nM): -2%
- inhibition at 1 µM ([6]; 1000 nM): -3%
- inhibition at 0.01 µM ([7]; 10 nM): -3%
- inhibition at 0.1 µM ([7]; 100 nM): 4%
- inhibition at 1 µM ([7]; 1000 nM): 7%
- inhibition at 0.01 µM ([8]; 10 nM): 0%
- inhibition at 0.1 µM ([8]; 100 nM): 8%
- inhibition at 1 µM ([8]; 1000 nM): 47%
- inhibition at 0.01 µM ([9]; 10 nM): -2%
- inhibition at 0.1 µM ([9]; 100 nM): -5%
- inhibition at 1 µM ([9]; 1000 nM): -2%
